Laboratory results taken from patent US8394834B2, “Pyrrolidines as NK3 receptor antagonists” (Hoffman-La Roche Inc., priority 2009, dated 2013).

Target: T1, recombinant human NK3 receptor (Homo sapiens, UniProt P29371)
T1 construct: expressed in transfected cells; host or cells: HEK293 cells (transient expression), membranes
T1 sequence (P29371 1-465): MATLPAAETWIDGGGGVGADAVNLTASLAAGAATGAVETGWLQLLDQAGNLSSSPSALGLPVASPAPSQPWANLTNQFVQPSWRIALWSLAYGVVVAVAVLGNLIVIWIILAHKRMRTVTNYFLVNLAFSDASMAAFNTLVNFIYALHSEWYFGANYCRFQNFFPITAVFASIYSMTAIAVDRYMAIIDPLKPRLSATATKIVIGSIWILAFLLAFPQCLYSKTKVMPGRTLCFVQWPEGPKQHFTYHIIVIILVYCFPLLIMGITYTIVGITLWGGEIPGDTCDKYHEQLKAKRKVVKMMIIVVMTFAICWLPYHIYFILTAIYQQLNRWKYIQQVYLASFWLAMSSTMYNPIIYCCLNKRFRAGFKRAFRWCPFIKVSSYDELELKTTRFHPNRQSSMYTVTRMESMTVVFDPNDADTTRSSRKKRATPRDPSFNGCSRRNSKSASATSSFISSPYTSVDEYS
Experiment: [3H]SR142801 competition binding assay
Conditions: hNK3 receptor, membranes from HEK293 cells transiently expressing the receptor, [3H]SR142801 radioligand
Description: [^3H]SR142801 Competition Binding Assay
hNK3 receptor binding experiment were performed using [^3H]SR142801 (Catalog No. TRK1035, specific activity: 74.0 Ci/mmol, Amersham, GE Healthcare UK limited, Buckinghamshire, UK) and membrane isolated from HEK293 cells transiently expressing recombinant human NK3 receptor. After thawing, the membrane homogenates were centrifuged at 48,000×g for 10 min at 4° C., the pellets were resuspended in the 50 mM Tris-HCl, 4 mM MnCl2, 1 μM phosphoramidon, 0.1% BSA binding buffer at pH 7.4 to a final assay concentration of 5 μg protein/well. For inhibition experiments, membranes were incubated with [^3H]SR142801 at a concentration equal to KD value of radioligand and 10 concentrations of the inhibitory compound (0.0003-10 μM) (in a total reaction volume of 500 μl) for 75 min at room temperature (RT). At the end of the incubation, membranes were filtered onto unitfilter (96-well white microplate with bonded GF/C filter preincubated 1 h in 0.3% PEI+0.3% BSA, Packard BioScience, Meriden, Conn.) with a Filtermate 196 harvester (Packard BioScience) and washed 4 times with ice-cold 50 mM Tris-HCl, pH 7.4 buffer. Nonspecific binding was measured in the presence of 10 μM SB222200 for both radioligands. The radioactivity on the filter was counted (5 min) on a Packard Top-count microplate scintillation counter with quenching correction after addition of 45 μl of microscint 40 (Can berra Packard S. A., Zürich, Switzerland) and shaking for 1 h. Inhibition curves were fitted according to the Hill equation: […]), where nH=slope factor using Excel-fit 4 software (Microsoft). IC50 values were derived from the inhibition curve and the affinity constant (Ki) values were calculated using the Cheng-Prussoff equation Ki=IC50/(1+[L]/KD) where [L] is the concentration of radioligand and KD is its dissociation constant at the receptor, derived from the saturation isotherm. All experiments were performed in duplicate and the mean±standard error (SEM) of the individual Ki values was calculated.

Q: For `C[C@H](Oc1ccc(F)cn1)[C@H]1CN(C(=O)C2CCN(c3ccc(C#N)cn3)CC2)C[C@@H]1c1ccc(Cl)cc1` [Example 7, 4-{(3S,4R)-3-(4-Chloro-phenyl)-4-[1-((S)-5-fluoro-pyridin-2-yloxy)-ethyl]-pyrrolidine-1-carbonyl}-3,4,5,6-tetrahydro-2H-[1,2′]bipyridinyl-5′-carbonitrile], which Ki is on record?
A: 1.2 nM

Q: Which Ki does the source give for `C[C@H](Oc1ccc(Cl)cn1)[C@H]1CN(C(=O)C2CCN(c3ncccc3C#N)CC2)C[C@@H]1c1ccc(Cl)cc1` [Example 10, 4-{(3S,4R)-3-(4-Chloro-phenyl)-4-[1-((S)-5-chloro-pyridin-2-yloxy)-ethyl]-pyrrolidine-1-carbonyl}-3,4,5,6-tetrahydro-2H-[1,2′]bipyridinyl-3′-carbonitrile] here?
A: 6.1 nM

Q: `C[C@H](Oc1ccc(Cl)cn1)[C@H]1CN(C(=O)C2CCN(c3ccc(C(F)(F)F)cn3)CC2)C[C@@H]1c1ccc(Cl)cc1` [Example 4, {(3S,4R)-3-(4-Chloro-phenyl)-4-[1-((S)-5-chloro-pyridin-2-yloxy)-ethyl]-pyrrolidin-1-yl}-(5′-trifluoromethyl-3,4,5,6-tetrahydro-2H-[1,2′]bipyridinyl-4-yl)-methanone] was tested. Which Ki did it give?
A: 0.8 nM

Q: With `Cc1ccc(N2CCC(C(=O)N3C[C@H]([C@H](C)Oc4ccc(C#N)cn4)[C@@H](c4ccc(F)c(F)c4)C3)CC2)nn1` [Example 21, 6-((S)-1-{(3R,4S)-4-(3,4-Difluoro-phenyl)-1-[1-(6-methyl-pyridazin-3-yl)-piperidine-4-carbonyl]-pyrrolidin-3-yl}-ethoxy)-nicotinonitrile] as the compound, how does the Ki read?
A: 2.8 nM

Q: How did the Ki turn out when `COc1ccc(N2CCC(C(=O)N3C[C@H]([C@H](C)Oc4ccc(Cl)cn4)[C@@H](c4ccc(Cl)cc4)C3)CC2)nc1` [Example 13, {(3S,4R)-3-(4-Chloro-phenyl)-4-[1-((S)-5-chloro-pyridin-2-yloxy)-ethyl]-pyrrolidin-1-yl}-(5′-methoxy-3,4,5,6-tetrahydro-2H-[1,2′]bipyridinyl-4-yl)-methanone] was run?
A: 0.7 nM

Q: How did the Ki turn out when `C[C@H](Oc1ccc(Cl)cn1)[C@H]1CN(C(=O)C2CCN(c3ccc(C#N)cn3)CC2)C[C@@H]1c1ccc(Cl)cc1` [Example 1, 4-{(3S,4R)-3-(4-Chloro-phenyl)-4-[1-((S)-5-chloro-pyridin-2-yloxy)-ethyl]-pyrrolidine-1-carbonyl}-3,4,5,6-tetrahydro-2H-[1,2′]bipyridinyl-5′-carbonitrile] was run?
A: 0.4 nM

Q: Which Ki does the source give for `C[C@H](Oc1ccc(Cl)cn1)[C@H]1CN(C(=O)C2CCN(c3ccc(C#N)nn3)CC2)C[C@@H]1c1ccc(Cl)cc1` [Example 6, 6-(4-{(3S,4R)-3-(4-Chloro-phenyl)-4-[1-((S)-5-chloro-pyridin-2-yloxy)-ethyl]-pyrrolidine-1-carbonyl}-piperidin-1-yl)-pyridazine-3-carbonitrile] here?
A: 0.5 nM

Q: With `CC(=O)c1ccc(N2CCC(C(=O)N3C[C@H]([C@H](C)Oc4ccc(Cl)cn4)[C@@H](c4ccc(Cl)cc4)C3)CC2)cc1` [Example 5, 1-[4-(4-{(3S,4R)-3-(4-Chloro-phenyl)-4-[1-((S)-5-chloro-pyridin-2-yloxy)-ethyl]-pyrrolidine-1-carbonyl}-piperidin-1-yl)-phenyl]-ethanone] as the compound, how does the Ki read?
A: 0.4 nM

Q: With `C[C@H](Oc1ccc(Cl)cn1)[C@H]1CN(C(=O)C2CCN(c3cc(C#N)ccn3)CC2)C[C@@H]1c1ccc(Cl)cc1` [Example 11, 4-{(3S,4R)-3-(4-Chloro-phenyl)-4-[1-((S)-5-chloro-pyridin-2-yloxy)-ethyl]-pyrrolidine-1-carbonyl}-3,4,5,6-tetrahydro-2H-[1,2′]bipyridinyl-4′-carbonitrile] as the compound, how does the Ki read?
A: 0.5 nM

Q: Which Ki does the source give for `C[C@H](Oc1ccc(Cl)cn1)[C@H]1CN(C(=O)C2CCN(c3cccc(C#N)n3)CC2)C[C@@H]1c1ccc(Cl)cc1` [Example 17, 4-{(3S,4R)-3-(4-Chloro-phenyl)-4-[1-((S)-5-chloro-pyridin-2-yloxy)-ethyl]-pyrrolidine-1-carbonyl}-3,4,5,6-tetrahydro-2H-[1,2′]bipyridinyl-6′-carbonitrile] here?
A: 1.5 nM

Q: `CC(=O)c1ccc(N2CCC(C(=O)N3C[C@H]([C@H](C)Oc4ccc(Cl)cn4)[C@@H](c4ccc(Cl)cc4)C3)CC2)nc1` [Example 9, 1-(4-{(3S,4R)-3-(4-Chloro-phenyl)-4-[1-((S)-5-chloro-pyridin-2-yloxy)-ethyl]-pyrrolidine-1-carbonyl}-3,4,5,6-tetrahydro-2H-[1,2′]bipyridinyl-5′-yl)-ethanone] was tested. Which Ki did it give?
A: 0.5 nM

Q: Which Ki does the source give for `COc1ccc(N2CCC(C(=O)N3C[C@H]([C@H](C)Oc4ccc(Cl)cn4)[C@@H](c4ccc(Cl)cc4)C3)CC2)nn1` [Example 14, {(3S,4R)-3-(4-Chloro-phenyl)-4-[1-((S)-5-chloro-pyridin-2-yloxy)-ethyl]-pyrrolidin-1-yl}-[1-(6-methoxy-pyridazin-3-yl)-piperidin-4-yl]-methanone] here?
A: 1.2 nM

Q: For `C[C@H](Oc1ccc(Cl)cn1)[C@H]1CN(C(=O)C2CCN(c3ccc(C#N)cn3)CC2)C[C@@H]1c1ccc(F)c(F)c1` [Example 20, 4-[(3R,4S)-3-[1-((S)-5-Chloro-pyridin-2-yloxy)-ethyl]-4-(3,4-difluoro-phenyl)-pyrrolidine-1-carbonyl]-3,4,5,6-tetrahydro-2H-[1,2′]bipyridinyl-5′-carbonitrile], which Ki is on record?
A: 0.9 nM

Q: `C[C@H](Oc1ccc(C#N)cn1)[C@H]1CN(C(=O)C2CCN(c3ccc(C#N)cn3)CC2)C[C@@H]1c1ccc(F)c(F)c1` [Example 19, 4-[(3R,48)-3-[1-((S)-5-Cyano-pyridin-2-yloxy)-ethyl]-4-(3,4-difluoro-phenyl)-pyrrolidine-1-carbonyl]-3,4,5,6-tetrahydro-2H-[1,2′]bipyridinyl-5′-carbonitrile] was tested. Which Ki did it give?
A: 1.2 nM

Q: How did the Ki turn out when `C[C@H](Oc1ccc(F)cn1)[C@H]1CN(C(=O)C2CCN(c3ccc(C#N)nn3)CC2)C[C@@H]1c1ccc(Cl)cc1` [Example 16, 6-(4-{(3S,4R)-3-(4-Chloro-phenyl)-4-[1-((S)-5-fluoro-pyridin-2-yloxy)-ethyl]-pyrrolidine-1-carbonyl}-piperidin-1-yl)-pyridazine-3-carbonitrile] was run?
A: 0.8 nM

Q: `C[C@H](Oc1ccc(Cl)cn1)[C@H]1CN(C(=O)C2CCN(c3cnccn3)CC2)C[C@@H]1c1ccc(Cl)cc1` [Example 2, {(3S,4R)-3-(4-Chloro-phenyl)-4-[1-((S)-5-chloro-pyridin-2-yloxy)-ethyl]-pyrrolidin-1-yl}-(1-pyrazin-2-yl-piperidin-4-yl)-methanone] was tested. Which Ki did it give?
A: 1.9 nM

Q: How did the Ki turn out when `COc1ccc(N2CCC(C(=O)N3C[C@H]([C@H](C)Oc4ccc(Cl)cn4)[C@@H](c4ccc(Cl)cc4)C3)CC2)cn1` [Example 15, {(3S,4R)-3-(4-Chloro-phenyl)-4-[1-((S)-5-chloro-pyridin-2-yloxy)-ethyl]-pyrrolidin-1-yl}-(6′-methoxy-3,4,5,6-tetrahydro-2H-[1,3,′]bipyridinyl-4-yl)-methanone] was run?
A: 0.5 nM

Q: Which Ki does the source give for `C[C@H](Oc1ccc(Cl)cn1)[C@H]1CN(C(=O)C2CCN(c3ccncn3)CC2)C[C@@H]1c1ccc(Cl)cc1` [Example 8, {(3S,4R)-3-(4-Chloro-phenyl)-4-[1-((S)-5-chloro-pyridin-2-yloxy)-ethyl]pyrrolidin-1-yl}-(1-pyrimidin-4-yl-piperidin-4-yl)-methanone] here?
A: 1.3 nM

Q: For `Cc1ccc(N2CCC(C(=O)N3C[C@H]([C@H](C)Oc4ccc(F)cn4)[C@@H](c4ccc(Cl)cc4)C3)CC2)nn1` [Example 12, {(3S,4R)-3-(4-Chloro-phenyl)-4-[1-((S)-5-fluoro-pyridin-2-yloxy)-ethyl]-pyrrolidin-1-yl}-[1-(6-methyl-pyridazin-3-yl)-piperidin-4-yl]-methanone], which Ki is on record?
A: 2.1 nM

Q: Which Ki does the source give for `C[C@H](Oc1ccc(Cl)cn1)[C@H]1CN(C(=O)C2CCN(c3ncccn3)CC2)C[C@@H]1c1ccc(Cl)cc1` [Example 3, {(3S,4R)-3-(4-Chloro-phenyl)-4-[1-((S)-5-chloro-pyridin-2-yloxy)-ethyl]-pyrrolidin-1-yl}-(1-pyrimidin-2-yl-piperidin-4-yl)-methanone] here?
A: 2.1 nM
